{"source": "patent US5321037A", "about": "“Isoxazole derivatives for use as cerebro-active drugs and central muscle relaxants” (Sankyo Company, Limited, priority 1986, dated 1994)", "key": {"[1]": {"tested_on": "ischemia-induced neurological symptoms in the Mongolian Gerbil", "experiment": "Improvement of ischemia-induced neurological symptoms in the Mongolian gerbil caused by ligation of the bilateral common carotid arteries for 30 minutes", "assay_type": "in vivo", "conditions": "100 mg/kg i.p. upon recommencement of blood flow", "method": "The test animals employed were male adult Mongolian gerbils (16-20 weeks old). These were used in groups each consisting of from 10 to 20 animals. The bilateral common carotid arteries were occluded for 30 minutes under anesthesia with pentobarbital (30 mg/kg, intraperitoneally) and halothane (it was introduced to a mixture of 95% oxygen and 5% carbon dioxide at a concentration of 1.5% by volume) and then the occlusion was released to allow the blood to flow. The animal was then placed in a supine position, and we measured (1) the time taken from recommencement of blood flow until convulsions occurred and (2) the survival time. Observations to determine the onset time of convulsions and the survival time were continued for 6 and 7 hours, respectively, after recommencement of blood flow. […] The compound to be tested was suspended in a 0.5% w/v carboxymethyl cellulose (CMC) aqueous solution and administered intraperitoneally upon recommencement of blood flow in the common carotid arteries. On the other hand, a 0.5% CMC solution containing no test compound was administered likewise to a control group. Statistical analysis was carried out using the Mann-Whitney U-test between the control group and the test group."}, "[2]": {"tested_on": "ischemia-induced neurological symptoms in SHR SP", "experiment": "Improvement in ischemia-induced neurological symptoms in Spontaneously Hypertensive Rats Stroke Prone (SHR SP) caused by ligation of the bilateral common carotid arteries", "assay_type": "in vivo, rat (SHR SP)", "method": "The test animals employed were male adult SHR SPs (13 or 15 weeks old). They were used in groups each consisting of about 10 animals. Under halothane anesthesia, both common carotid arteries of each animal were ligated to prepare a brain ischemia model. The halothane anesthesia was stopped immediately after the ligation, and then the time taken to recover the righting reflex, the onset time of convulsions and the survival time were determined. The test solution was prepared in the same manner as described in Experiment 1 and was administered to the animal intraperitoneally 30 minutes before the ligation. A 0.5% CMC solution was administered to the control group in the same manner. The statistical analysis was carried out in a similar manner to that in Experiment 1. The statistical analysis of the survival rate was carried out by the X^2 test."}, "[3]": {"tested_on": "decerebrate rigidity in rats", "experiment": "Suppression of decerebrate rigidity in rats", "assay_type": "in vivo, rat", "excerpt": "The suppression of decerebrate rigidity in laboratory animals, such as rats, is a well known model for control of human spasticity and/or rigidity.\nIn the test method, a rat was anesthetized with halothane and fixed on a stereotaxic apparatus (SR-5, Narishige). In accordance with the brain atlas by Pellegrino et al., [L. J. Pellegrino, A. S. Pellegrino & A. J. Cushman: A Stereotaxic Atlas of the Rat Brain, Plenum Press, New York and London (1967)], an electrode 0.7 mm in diameter, which was insulated except for 1 mm at the tip, was inserted bilaterally into the midbrain reticular formation (AP: 0, L: ±1.5, H: -3.0). A clip serving as the reference electrode was fixed on the temporal muscle. Through these electrodes, a high frequency electric current (100 KHz, 10 to 20 mA) was applied from a lesion generator (Glass Co., LM4A) for 2 to 3 minutes to cauterize electrically this brain region.\nThe rat was then immediately set free from the stereotaxic apparatus. A polyethylene cannula was inserted into the duodenum and fixed with an acrylic resin (Aron Alfa, Sankyo Co., Ltd.). After completion of these operations, halothane anesthesia was immediately discontinued.\nAfter 1.5 hours, when the animal awoke from the anesthesia, the rat was fixed on an apparatus devised in our laboratory for a hind leg fixation. Both hind legs were fixed at the anterior part of the ankle joints. Both hindlimb paws were then pushed in 4 mm for 6 seconds in every minute. The resulting repulsive tension was drawn on a polygraph through a strain gauge.\nThe test compounds were suspended in a 0.5% w/v CMC (carboxymethyl cellulose) aqueous solution and were administered orally (p.o.) or intraperitoneally (i.p.).\nThe results are summarized in the following Table 7, where the compounds of the present invention are identified by the number of the foregoing Example in which each was prepared, Compound X is the known compound eperisone hydrochloride, and Compound Y is the known compound afloqualone."}, "[4]": {"tested_on": "decerebrate rigidity (cats)", "experiment": "Suppression of decerebrate rigidity (cats)", "assay_type": "in vivo, cat", "excerpt": "Adult cats each weight 3.0 to 4.5 kg were used. Under ether anesthesia, the trachea was cannulated and the common carotid arteries were ligated at both sides. The cat was decerebrated by suction at the precollicular level. Ether anesthesia was then immediately discontinued. A pair of needle electrodes was inserted into the neck muscle in order to pick up any EMG muscular discharges. The EMG discharge was amplified and recorded on a pen-writing recorder, along with an integration of the EMG discharge. Recording was started at least 2 hours after withdrawal of anesthesia. Blood pressure induced from the femoral artery, as well as body temperature and heart beat, were recorded and monitored throughout the experiment.\nAfter stable EMG discharges were obtained, the test compounds suspended in 0.5% CMC solution were administered into the duodenum through a previously inserted cannula. The effect of the test compound was expressed as the ratio of the integrated EMG discharge after administration relative to the value before administration."}, "spinal reflex in cats": {"tested_on": "spinal reflex in cats", "experiment": "Effect on spinal reflex in cats", "assay_type": "in vivo, cat", "method": "Adult cats weighing 3.0 to 4.5 kg each were used. After induction of anesthesia with ether, the animal was anesthetized by intravenous injection of 50 mg/kg of a-chloralose. After the trachea was cannulated, the animal was fixed on a stereotaxic apparatus, and the lumbosacral spinal cord was exposed by laminectomy from L3 to S1. The ventral roots of the right side were cut from L6 to S1 as distal as possible and the cut ends were ligated with cotton thread previously immersed in Ringer's solution. The exposed spinal cord was covered with warmed mineral oil and maintained at 37° C. The ventral root, either L7 or S1, was fixed on a pair of platinum wire electrodes. A pair of collar-type electrodes was implanted on the ipsilateral tibial nerve and the saphenous nerve, for stimulation. After completion of all these operations, the cat was immobilized with pancronium bromide (0.5 mg/kg, i.v.) and maintained by artificial respiration (40/minute). Recording was started at least 2 hours after withdrawal of ether anesthesia. A single square pulse (0.01 to 0.1 msecond pulse width, supramaximal intensity) was applied to the nerve at a frequency of 0.3 Hz from an electronic stimulator. […] In a similar manner to Experiment 2, the blood pressure, heart beat and body temperature of the animal were recorded and monitored. Compounds to be tested were also administered in a similar manner."}, "thiopental anesthesia": {"tested_on": "thiopental anesthesia", "experiment": "Potentiation of thiopental anesthesia (mice)", "assay_type": "in vivo, mouse (ddY strain)", "conditions": "for Anesthesia time: thiopental 30 mg/kg after one hour", "method": "In the test method, male adult mice of ddY strain each weighing 20 to 30 g were used as divided groups each made up of 5 to 7 mice. Test compounds suspended in 0.5% CMC solution were orally administered. After one hour, thiopental (30 mg/kg) was injected into the tail vein, and the time required for the mouse to recover the righting reflex was measured."}, "[5]": {"tested_on": "decerebrate rigidity in rats", "experiment": "Suppression of decerebrate rigidity in rats", "assay_type": "in vivo, rat", "remark": "listed apart in the source"}, "[6]": {"conditions": "30 mg/kg i.p. 30 minutes before ligation"}, "[7]": {"conditions": "100 mg/kg i.p. 30 minutes before ligation"}, "[8]": {"conditions": "100 mg/kg, administered as in Experiment 2"}, "[9]": {"conditions": "100 mg/kg, after administration"}}, "note": "Where a name gives a salt, the structure may show the parent alone. Read-outs that look alike come from different tables or passages of the source."}
{"smiles": "O=c1c(Cl)c(-c2ccccc2)on1CC(O)CN1CCOCC1", "note": "(centres unmarked) [2a hydrochloride]", "values": [{"measurement": "Onset time of convulsions", "setting": "[1]", "value": 289.4, "unit": "min"}, {"measurement": "Survival time", "setting": "[1]", "value": 375.7, "unit": "min"}, {"measurement": "Onset time of convulsions", "setting": "[2]; [6]", "value": "99.8 ± 27.8", "unit": "min"}, {"measurement": "Recovery time of righting reflex", "setting": "[2]; [6]", "value": "8.0 ± 1.7", "unit": "min"}, {"measurement": "Survival time", "setting": "[2]; [6]", "value": "232.1 ± 35.8", "unit": "min"}, {"measurement": "Onset time of convulsions", "setting": "[2]; [7]", "value": "103.5 ± 16.2", "unit": "min"}, {"measurement": "Recovery time of righting reflex", "setting": "[2]; [7]", "value": "7.6 ± 1.7", "unit": "min"}, {"measurement": "Survival time", "setting": "[2]; [7]", "value": "233.0 ± 28.7", "unit": "min"}]}
{"smiles": "O=c1cc(-c2ccccc2)on1CC(O)CN1CCOCC1", "note": "(centres unmarked) [Compound 1a]", "values": [{"measurement": "Onset of the effect", "setting": "[3]; 10 mg/kg i.d.", "value": 10, "unit": "min"}, {"measurement": "Duration of the effect", "setting": "[3]; 30 mg/kg i.d.", "value": "> 180", "unit": "min"}, {"measurement": "Onset of the effect", "setting": "[3]; 30 mg/kg i.d.", "value": 5, "unit": "min"}, {"measurement": "Duration of the effect", "setting": "[3]; 30 mg/kg i.p.", "value": "> 120", "unit": "min"}, {"measurement": "Onset of the effect", "setting": "[3]; 30 mg/kg i.p.", "value": 5, "unit": "min"}, {"measurement": "Duration of the effect", "setting": "[3]; 30 mg/kg p.o.", "value": "> 160", "unit": "min"}, {"measurement": "Onset of the effect", "setting": "[3]; 30 mg/kg p.o.", "value": 10, "unit": "min"}, {"measurement": "inhibition in vivo at 10 mg/kg", "setting": "[3]; Rattus norvegicus, intraduodenal, 10 mg/kg i.d., read-out: Maximum inhibition", "value": 20, "unit": "%"}, {"measurement": "inhibition in vivo at 30 mg/kg", "setting": "[3]; Rattus norvegicus, ip, 30 mg/kg i.p., read-out: Maximum inhibition", "value": 60, "unit": "%"}, {"measurement": "inhibition in vivo at 30 mg/kg", "setting": "[3]; Rattus norvegicus, po, 30 mg/kg p.o., read-out: Maximum inhibition", "value": 95, "unit": "%"}, {"measurement": "Inhibition of decerebrate rigidity", "setting": "[4]; 100 mg/kg intraduodenal, 5 minutes after administration", "value": "About 30%"}, {"measurement": "Inhibition of decerebrate rigidity", "setting": "[4]; 100 mg/kg intraduodenal, 1 hour after administration", "value": "about 65%"}, {"measurement": "Duration of inhibitory effects", "setting": "[4]; 100 mg/kg intraduodenal, throughout the observation period", "value": "≥ 2", "unit": "h"}, {"measurement": "Side effects and duration of action compared with eperisone hydrochloride", "setting": "[4]; compared with eperisone hydrochloride", "value": "weaker in side effects and of longer action than eperisone hydrochloride"}, {"measurement": "Duration of the effect on spinal reflexes", "setting": "spinal reflex in cats; 100 mg/kg", "value": "about 2 hours"}, {"measurement": "Monosynaptic reflex", "setting": "spinal reflex in cats; [8]", "value": "little affected"}, {"measurement": "Polysynaptic reflex", "setting": "spinal reflex in cats; [8]", "value": "remarkably inhibited"}, {"measurement": "Spino-bulbo-spinal reflex", "setting": "spinal reflex in cats; [8]", "value": "remarkably inhibited"}, {"measurement": "Onset of the effect on spinal reflexes", "setting": "spinal reflex in cats; [9]", "value": 5, "unit": "min"}, {"measurement": "Time of maximum effect on spinal reflexes", "setting": "spinal reflex in cats; [9]", "value": 30, "unit": "min"}, {"measurement": "Mechanism shown by spinal reflexes", "setting": "spinal reflex in cats; in vivo", "value": "interneuron blockers"}, {"measurement": "Anesthesia time", "setting": "thiopental anesthesia; 50 mg/kg p.o.", "value": "288.5 ± 20.1", "unit": "s"}, {"measurement": "Anesthesia time", "setting": "thiopental anesthesia; 100 mg/kg p.o.", "value": "237.3 ± 25.5", "unit": "s"}, {"measurement": "Drowsiness (the adverse effect), implied", "setting": "thiopental anesthesia; compared with afloqualone", "value": "induce drowsiness (the adverse effect) less than afloqualone"}, {"measurement": "Prolongation of the duration of thiopental-induced anesthesia, in words", "setting": "thiopental anesthesia; in comparison with eperisone hydrochloride", "value": "did not significantly prolong the duration of thiopental-induced anesthesia"}, {"measurement": "Duration of the effect", "setting": "[5]; 10 mg/kg i.d.", "value": "> 90", "unit": "min"}, {"measurement": "inhibition in vivo at 30 mg/kg", "setting": "[5]; Rattus norvegicus, intraduodenal, 30 mg/kg i.d., read-out: Maximum inhibition", "value": 60, "unit": "%"}]}
